# Columns and labels:
# Experiment in all cases: NCI-60 single-dose screen
# Assay type in all cases: cell-based
# 786-0 = details: Homo sapiens, single dose 10 µM, '-' = no inhibition, read-out: % Growth Inhibition
# Procedure, shortened: (§1)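 NCI Developmental Therapeutics Program screen across 60 human cancer cell lines from nine tumor types; compounds tested at a single dose of 10 μM.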
# A498 = details: Homo sapiens, single dose 10 µM, '-' = no inhibition, read-out: % Growth Inhibition
# Procedure, shortened: as §1
# A549/ATCC = details: Homo sapiens, single dose 10 µM, '-' = no inhibition, read-out: % Growth Inhibition
# Procedure, shortened: as §1
# ACHN 1 = details: Homo sapiens, single dose 10 µM, '-' = no inhibition, read-out: % Growth Inhibition
# Procedure, shortened: as §1
# BT-549 = details: Homo sapiens, single dose 10 µM, '-' = no inhibition, read-out: % Growth Inhibition
# Procedure, shortened: as §1
# CAKI-1 = details: Homo sapiens, single dose 10 µM, '-' = no inhibition, read-out: % Growth Inhibition
# Procedure, shortened: as §1
# COLO 205 = details: Homo sapiens, single dose 10 µM, '-' = no inhibition, read-out: % Growth Inhibition
# Procedure, shortened: as §1
# DU-145 = details: Homo sapiens, single dose 10 µM, '-' = no inhibition, read-out: % Growth Inhibition
# Procedure, shortened: as §1
# EKVX = details: Homo sapiens, single dose 10 µM, '-' = no inhibition, read-out: % Growth Inhibition
# Procedure, shortened: as §1
# HCC-2998 = details: Homo sapiens, single dose 10 µM, '-' = no inhibition, read-out: % Growth Inhibition
# Procedure, shortened: as §1
# HCT-116 = details: Homo sapiens, single dose 10 µM, '-' = no inhibition, read-out: % Growth Inhibition
# Procedure, shortened: as §1
# HL-60(TB) = details: Homo sapiens, single dose 10 µM, '-' = no inhibition, read-out: % Growth Inhibition
# HOP-62 = details: Homo sapiens, single dose 10 µM, '-' = no inhibition, read-out: % Growth Inhibition
# Procedure, shortened: as §1
# HOP-92 = details: Homo sapiens, single dose 10 µM, '-' = no inhibition, read-out: % Growth Inhibition
# Procedure, shortened: as §1
# IGROV1 = details: Homo sapiens, IGROV-1, single dose 10 µM, '-' = no inhibition, read-out: % Growth Inhibition
# Procedure, shortened: as §1
# K-562 = details: Homo sapiens, K562, single dose 10 µM, '-' = no inhibition, read-out: % Growth Inhibition
# Procedure, shortened: as §1
# KM12 = details: Homo sapiens, single dose 10 µM, '-' = no inhibition, read-out: % Growth Inhibition
# Procedure, shortened: as §1
# LOX IMVI = details: Homo sapiens, single dose 10 µM, '-' = no inhibition, read-out: % Growth Inhibition
# Procedure, shortened: as §1
# MALME-3M = details: Homo sapiens, single dose 10 µM, '-' = no inhibition, read-out: % Growth Inhibition
# Procedure, shortened: as §1
# MCF7 = details: Homo sapiens, single dose 10 µM, '-' = no inhibition, read-out: % Growth Inhibition
# Procedure, shortened: as §1
# MDA-MB-435 = details: Homo sapiens, single dose 10 µM, '-' = no inhibition, read-out: % Growth Inhibition
# Procedure, shortened: as §1
# MDA-MB-468 = details: Homo sapiens, single dose 10 µM, '-' = no inhibition, read-out: % Growth Inhibition
# Procedure, shortened: as §1
# MDA-MB231/ATCC = details: Homo sapiens, MDA-MB-231, single dose 10 µM, '-' = no inhibition, read-out: % Growth Inhibition
# Procedure, shortened: as §1
# NCI-H23 = details: Homo sapiens, single dose 10 µM, '-' = no inhibition, read-out: % Growth Inhibition
# Procedure, shortened: as §1
# NCI-H322M = details: Homo sapiens, single dose 10 µM, '-' = no inhibition, read-out: % Growth Inhibition
# Procedure, shortened: as §1
# NCI-H460 = details: Homo sapiens, single dose 10 µM, '-' = no inhibition, read-out: % Growth Inhibition
# Procedure, shortened: as §1
# NCI-H522 = details: Homo sapiens, single dose 10 µM, '-' = no inhibition, read-out: % Growth Inhibition
# Procedure, shortened: as §1
# NCI/ADR-RES = details: Homo sapiens, single dose 10 µM, '-' = no inhibition, read-out: % Growth Inhibition
# Procedure, shortened: as §1
# OVCAR-3 = details: Homo sapiens, single dose 10 µM, '-' = no inhibition, read-out: % Growth Inhibition
# Procedure, shortened: as §1
# OVCAR-4 = details: Homo sapiens, single dose 10 µM, '-' = no inhibition, read-out: % Growth Inhibition
# Procedure, shortened: as §1
# OVCAR-5 = details: Homo sapiens, single dose 10 µM, '-' = no inhibition, read-out: % Growth Inhibition
# Procedure, shortened: as §1
# OVCAR-8 = details: Homo sapiens, single dose 10 µM, '-' = no inhibition, read-out: % Growth Inhibition
# Procedure, shortened: as §1
# PC-3 = details: Homo sapiens, single dose 10 µM, '-' = no inhibition, read-out: % Growth Inhibition
# Procedure, shortened: as §1
# RPMI-8226 = details: Homo sapiens, single dose 10 µM, '-' = no inhibition, read-out: % Growth Inhibition
# Procedure, shortened: as §1
# RXF 393 = details: Homo sapiens, single dose 10 µM, '-' = no inhibition, read-out: % Growth Inhibition
# Procedure, shortened: as §1
# SF-268 = details: Homo sapiens, single dose 10 µM, '-' = no inhibition, read-out: % Growth Inhibition
# Procedure, shortened: as §1
# SK-MEL-28 = details: Homo sapiens, single dose 10 µM, '-' = no inhibition, read-out: % Growth Inhibition
# Procedure, shortened: as §1
# SK-MEL-2 = details: Homo sapiens, single dose 10 µM, '-' = no inhibition, read-out: % Growth Inhibition
# Procedure, shortened: as §1
# SK-MEL-5 = details: Homo sapiens, single dose 10 µM, '-' = no inhibition, read-out: % Growth Inhibition
# Procedure, shortened: as §1
# SN12C = details: Homo sapiens, single dose 10 µM, '-' = no inhibition, read-out: % Growth Inhibition
# Procedure, shortened: as §1
# SNB-19 = details: Homo sapiens, single dose 10 µM, '-' = no inhibition, read-out: % Growth Inhibition
# Procedure, shortened: as §1
# SNB-75 = details: Homo sapiens, single dose 10 µM, '-' = no inhibition, read-out: % Growth Inhibition
# Procedure, shortened: as §1
# SR = details: Homo sapiens, single dose 10 µM, '-' = no inhibition, read-out: % Growth Inhibition
# Procedure, shortened: as §1
# TK-10 = details: Homo sapiens, single dose 10 µM, '-' = no inhibition, read-out: % Growth Inhibition
# Procedure, shortened: as §1
# U251 = details: Homo sapiens, U-251, single dose 10 µM, '-' = no inhibition, read-out: % Growth Inhibition
# Procedure, shortened: as §1
# UACC-257 = details: Homo sapiens, single dose 10 µM, '-' = no inhibition, read-out: % Growth Inhibition
# Procedure, shortened: as §1
# UACC-62 = details: Homo sapiens, single dose 10 µM, '-' = no inhibition, read-out: % Growth Inhibition
# Procedure, shortened: as §1
# UO-31 = details: Homo sapiens, single dose 10 µM, '-' = no inhibition, read-out: % Growth Inhibition
# Procedure, shortened: as §1
structure (smiles),measurement,setting,value
"COc1ccc(-c2cc(-c3ccc(Cl)cc3)nc(SC(C)C)n2)cc1OC [Compound 26, 4-(4-Chlorophenyl)-2-(isopropylthio)-6-(3,4-dimethoxyphenyl)pyrimidine]",inhibition at 10 µM,786-0,< 0%
same,inhibition at 10 µM,A498,< 0%
same,inhibition at 10 µM,A549/ATCC,0.02%
same,inhibition at 10 µM,ACHN 1,< 0%
same,inhibition at 10 µM,BT-549,< 0%
same,inhibition at 10 µM,CAKI-1,9.22%
same,inhibition at 10 µM,COLO 205,< 0%
same,inhibition at 10 µM,DU-145,< 0%
same,inhibition at 10 µM,EKVX,4.59%
same,inhibition at 10 µM,HCC-2998,< 0%
same,inhibition at 10 µM,HCT-116,2.84%
same,inhibition at 10 µM,HL-60(TB),14.5%
same,inhibition at 10 µM,HOP-62,< 0%
same,inhibition at 10 µM,HOP-92,< 0%
same,inhibition at 10 µM,IGROV1,< 0%
same,inhibition at 10 µM,K-562,6.67%
same,inhibition at 10 µM,KM12,1.72%
same,inhibition at 10 µM,LOX IMVI,4.14%
same,inhibition at 10 µM,MALME-3M,< 0%
same,inhibition at 10 µM,MCF7,18.1%
same,inhibition at 10 µM,MDA-MB-435,1.25%
same,inhibition at 10 µM,MDA-MB-468,7.33%
same,inhibition at 10 µM,MDA-MB231/ATCC,4.5%
same,inhibition at 10 µM,NCI-H23,< 0%
same,inhibition at 10 µM,NCI-H322M,1.11%
same,inhibition at 10 µM,NCI-H460,< 0%
same,inhibition at 10 µM,NCI-H522,9.05%
same,inhibition at 10 µM,NCI/ADR-RES,< 0%
same,inhibition at 10 µM,OVCAR-3,< 0%
same,inhibition at 10 µM,OVCAR-4,< 0%
same,inhibition at 10 µM,OVCAR-5,< 0%
same,inhibition at 10 µM,OVCAR-8,4.2%
same,inhibition at 10 µM,PC-3,< 0%
same,inhibition at 10 µM,RPMI-8226,0.53%
same,inhibition at 10 µM,RXF 393,< 0%
same,inhibition at 10 µM,SF-268,< 0%
same,inhibition at 10 µM,SK-MEL-28,< 0%
same,inhibition at 10 µM,SK-MEL-2,< 0%
same,inhibition at 10 µM,SK-MEL-5,< 0%
same,inhibition at 10 µM,SN12C,8.05%
same,inhibition at 10 µM,SNB-19,3.77%
same,inhibition at 10 µM,SNB-75,< 0%
same,inhibition at 10 µM,SR,12.6%
same,inhibition at 10 µM,TK-10,< 0%
same,inhibition at 10 µM,U251,< 0%
same,inhibition at 10 µM,UACC-257,0.69%
same,inhibition at 10 µM,UACC-62,17.4%
same,inhibition at 10 µM,UO-31,15.2%
"C=CCSc1nc(-c2ccc(Cl)cc2)cc(-c2ccc(OC)c(OC)c2)n1 [Compound 27, 2-(Allylthio)-4-(4-chlorophenyl)-6-(3,4-dimethoxyphenyl)pyrimidine]",inhibition at 10 µM,786-0,2.53%
same,inhibition at 10 µM,A498,< 0%
same,inhibition at 10 µM,A549/ATCC,12.3%
same,inhibition at 10 µM,ACHN 1,6.5%
same,inhibition at 10 µM,BT-549,3.91%
same,inhibition at 10 µM,CAKI-1,13.1%
same,inhibition at 10 µM,COLO 205,< 0%
same,inhibition at 10 µM,DU-145,2.02%
same,inhibition at 10 µM,EKVX,12.2%
same,inhibition at 10 µM,HCC-2998,< 0%
same,inhibition at 10 µM,HCT-116,21.8%
same,inhibition at 10 µM,HL-60(TB),29.2%
same,inhibition at 10 µM,HOP-62,< 0%
same,inhibition at 10 µM,HOP-92,10.6%
same,inhibition at 10 µM,IGROV1,< 0%
same,inhibition at 10 µM,K-562,42%
same,inhibition at 10 µM,KM12,3.43%
same,inhibition at 10 µM,LOX IMVI,7.11%
same,inhibition at 10 µM,MALME-3M,< 0%
same,inhibition at 10 µM,MCF7,17.9%
same,inhibition at 10 µM,MDA-MB-435,6.35%
same,inhibition at 10 µM,MDA-MB-468,23.7%
same,inhibition at 10 µM,MDA-MB231/ATCC,7.53%
same,inhibition at 10 µM,NCI-H23,7.78%
same,inhibition at 10 µM,NCI-H322M,< 0%
same,inhibition at 10 µM,NCI-H460,6.7%
same,inhibition at 10 µM,NCI-H522,16.4%
same,inhibition at 10 µM,NCI/ADR-RES,21.8%
same,inhibition at 10 µM,OVCAR-3,< 0%
same,inhibition at 10 µM,OVCAR-4,10.3%
same,inhibition at 10 µM,OVCAR-5,< 0%
same,inhibition at 10 µM,OVCAR-8,7.89%
same,inhibition at 10 µM,PC-3,15.7%
same,inhibition at 10 µM,RPMI-8226,14.3%
same,inhibition at 10 µM,RXF 393,3.07%
same,inhibition at 10 µM,SF-268,< 0%
same,inhibition at 10 µM,SK-MEL-28,< 0%
same,inhibition at 10 µM,SK-MEL-2,0.52%
same,inhibition at 10 µM,SK-MEL-5,12.2%
same,inhibition at 10 µM,SN12C,14.3%
same,inhibition at 10 µM,SNB-19,8.39%
same,inhibition at 10 µM,SNB-75,< 0%
same,inhibition at 10 µM,SR,30.3%
same,inhibition at 10 µM,TK-10,< 0%
same,inhibition at 10 µM,U251,< 0%
same,inhibition at 10 µM,UACC-257,< 0%
same,inhibition at 10 µM,UACC-62,26%
same,inhibition at 10 µM,UO-31,22.9%
